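Each compound was tested at five concentrations against cells in 96-well plates for 48 hours. Here, GI50 denotes the concentration required for 50% inhibition of growth. Definition used: TGI = concentration required for complete inhibition of growth.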
What was measured:
Experiment in all cases: inhibition of tumour cell growth, NCI panel, 48 h
BT-549 breast = system: BT-549 breast
PC-3 prostate = system: PC-3 prostate
UACC-62 melanoma = system: UACC-62 melanoma
COLO 205 colon = system: COLO 205 colon
SN12C renal = system: SN12C renal
SW-620 colon = system: SW-620 colon
SK-MEL-2 melanoma = system: SK-MEL-2 melanoma
HCT-116 colon = system: HCT-116 colon
ACHN renal = system: ACHN renal
UACC-257 melanoma = system: UACC-257 melanoma
NCI-H460 lung = system: NCI-H460 lung
SK-OV-3 ovarian = system: SK-OV-3 ovarian
NCI-H226 lung = system: NCI-H226 lung
SR leukemia = system: SR leukemia
EKVX NSCLC = system: EKVX NSCLC
A549 NSCLC = system: A549 NSCLC
CAKI-1 renal = system: CAKI-1 renal
DU-145 prostate = system: DU-145 prostate
OVCAR-3 ovarian = system: OVCAR-3 ovarian
M14 melanoma = system: M14 melanoma
IGROV1 ovarian = system: IGROV1 ovarian
T-47D breast = system: T-47D breast
MDA-MB-231 breast = system: MDA-MB-231 breast
OVCAR-5 ovarian = system: OVCAR-5 ovarian
SNB-75 CNS = system: SNB-75 CNS
OVCAR-4 ovarian = system: OVCAR-4 ovarian
HOP-92 NSCLC = system: HOP-92 NSCLC
HL-60(TB) leukemia = system: HL-60(TB) leukemia
SK-MEL-5 melanoma = system: SK-MEL-5 melanoma
TK-10 renal = system: TK-10 renal
MOLT-4 leukemia = system: MOLT-4 leukemia
NCI/ADR-RES ovarian = system: NCI/ADR-RES ovarian
SF-268 CNS = system: SF-268 CNS
MDA-MB-435 = system: MDA-MB-435
U251 CNS = system: U251 CNS
SNB-19 CNS = system: SNB-19 CNS
LOX IMVI melanoma = system: LOX IMVI melanoma
HOP-62 NSCLC = system: HOP-62 NSCLC
NCI-H522 lung = system: NCI-H522 lung
UO-31 renal = system: UO-31 renal
SF-295 CNS = system: SF-295 CNS
K-562 leukemia = system: K-562 leukemia
786-0 renal = system: 786-0 renal
RPMI-8226 leukemia = system: RPMI-8226 leukemia
KM12 colon = system: KM12 colon
HS 578T breast = system: HS 578T breast
HCT-15 colon = system: HCT-15 colon

SMILES: CC1=C(C(=O)Nc2ccc(Cl)c(Cl)c2)C(c2ccccc2Cl)NC(=S)N1 (centres undefined)
- GI50 (BT-549 breast): 39.4 µM
- TGI (BT-549 breast): > 50 µM
- GI50 (PC-3 prostate): 8.08 µM
- TGI (PC-3 prostate): 23.3 µM
- GI50 (UACC-62 melanoma): 8.01 µM
- TGI (UACC-62 melanoma): 18.9 µM
- GI50 (COLO 205 colon): 8.01 µM
- TGI (COLO 205 colon): 22.2 µM
- GI50 (SN12C renal): 8.53 µM
- TGI (SN12C renal): 15.8 µM
- GI50 (SW-620 colon): 10.8 µM
- TGI (SW-620 colon): 24.4 µM
- GI50 (SK-MEL-2 melanoma): 14.6 µM
- TGI (SK-MEL-2 melanoma): 25.2 µM
- GI50 (HCT-116 colon): 6.23 µM
- TGI (HCT-116 colon): 12.5 µM
- GI50 (ACHN renal): 10.9 µM
- TGI (ACHN renal): 25.2 µM
- GI50 (UACC-257 melanoma): 14.5 µM
- TGI (UACC-257 melanoma): 26.8 µM
- GI50 (NCI-H460 lung): 6.58 µM
- TGI (NCI-H460 lung): 13.7 µM
- GI50 (SK-OV-3 ovarian): 12.5 µM
- TGI (SK-OV-3 ovarian): > 50 µM
- GI50 (NCI-H226 lung): 10.1 µM
- TGI (NCI-H226 lung): 25.7 µM
- GI50 (SR leukemia): 11.7 µM
- TGI (SR leukemia): > 50 µM
- GI50 (EKVX NSCLC): 9.09 µM
- TGI (EKVX NSCLC): 19 µM
- GI50 (A549 NSCLC): 24.1 µM
- TGI (A549 NSCLC): > 50 µM
- GI50 (CAKI-1 renal): 9.85 µM
- TGI (CAKI-1 renal): 21.5 µM
- GI50 (DU-145 prostate): 11.9 µM
- TGI (DU-145 prostate): > 50 µM
- GI50 (OVCAR-3 ovarian): 10.5 µM
- TGI (OVCAR-3 ovarian): 20.6 µM
- GI50 (M14 melanoma): 11.6 µM
- TGI (M14 melanoma): 26.9 µM
- GI50 (IGROV1 ovarian): 22.5 µM
- TGI (IGROV1 ovarian): > 50 µM
- GI50 (T-47D breast): 18.9 µM
- TGI (T-47D breast): > 50 µM
- GI50 (MDA-MB-231 breast): 7.15 µM
- TGI (MDA-MB-231 breast): 17.3 µM
- GI50 (OVCAR-5 ovarian): 13.6 µM
- TGI (OVCAR-5 ovarian): 41.9 µM
- GI50 (SNB-75 CNS): 5.48 µM
- TGI (SNB-75 CNS): 29.2 µM
- GI50 (OVCAR-4 ovarian): 23.6 µM
- TGI (OVCAR-4 ovarian): > 50 µM
- GI50 (HOP-92 NSCLC): 1.15 µM
- TGI (HOP-92 NSCLC): 9.02 µM
- GI50 (HL-60(TB) leukemia): 15.4 µM
- TGI (HL-60(TB) leukemia): > 50 µM
- GI50 (SK-MEL-5 melanoma): 7.96 µM
- TGI (SK-MEL-5 melanoma): 15.1 µM
- GI50 (TK-10 renal): 10.1 µM
- TGI (TK-10 renal): 22.6 µM
- GI50 (MOLT-4 leukemia): 8.92 µM
- TGI (MOLT-4 leukemia): > 50 µM
- GI50 (NCI/ADR-RES ovarian): 9.62 µM
- TGI (NCI/ADR-RES ovarian): 19.7 µM
- GI50 (SF-268 CNS): 5.62 µM
- TGI (SF-268 CNS): 12.5 µM
- GI50 (MDA-MB-435): 8.08 µM
- TGI (MDA-MB-435): 16.2 µM
- GI50 (U251 CNS): 11.9 µM
- TGI (U251 CNS): 26.8 µM
- GI50 (SNB-19 CNS): 0.695 µM
- TGI (SNB-19 CNS): 12.8 µM
- GI50 (LOX IMVI melanoma): > 50 µM
- TGI (LOX IMVI melanoma): > 50 µM
- GI50 (HOP-62 NSCLC): 12.4 µM
- TGI (HOP-62 NSCLC): 22.7 µM
- GI50 (NCI-H522 lung): 13.6 µM
- TGI (NCI-H522 lung): 24.9 µM
- GI50 (UO-31 renal): 8.06 µM
- TGI (UO-31 renal): 16.7 µM
- GI50 (SF-295 CNS): 9.46 µM
- TGI (SF-295 CNS): 22 µM
- GI50 (K-562 leukemia): 11 µM
- TGI (K-562 leukemia): > 50 µM
- GI50 (786-0 renal): 10.2 µM
- TGI (786-0 renal): 20 µM
- GI50 (RPMI-8226 leukemia): 4.18 µM
- TGI (RPMI-8226 leukemia): 24 µM
- GI50 (KM12 colon): 8.71 µM
- TGI (KM12 colon): 17.6 µM
- GI50 (HS 578T breast): 6.38 µM
- TGI (HS 578T breast): 13.9 µM
- GI50 (HCT-15 colon): 7.8 µM
- TGI (HCT-15 colon): 19 µM
